System: PA/PB1 HEK293T (Teton) cell line
Experiment: Dox-controlled inducible PA/PB1 expression, luciferase activity and Western blotting
Format: cell-based
Conditions: Dox 300 ng/mL, 16 h, PA/PB1 HEK293T (Teton) cells
Experimental: To detect the influence of Doxycycline (Dox) (purchased from Sigma) on controlled inducible PA/PB1 expression, 100,000 PA/PB1 HEK293T (Teton) cells and 300 μL DMEM complete medium were plated in each well of a 48 well plate. After 24 h, Dox was added at concentrations of 0, 10, 30, 100, 300 ng/mL respectively. After 16 h, culture medium in supernatant was removed, and lysis was performed on ice for 10 min using 80 μL renilla luciferase lysate (purchased from Promega, E2820), lysate was mixed by pipetting, 50 μL cell lysate was transferred into a plate for luciferase detection (purchased from PE), 20 μL renilla luciferase substrate (purchased from Promega, E2820) was added into each well, and luciferase activity was detected by a microplate reader (purchased from Bio-Tek, SynergyH1). The remaining 30 μL lysate was used for immune blotting (Western Blotting), the primary antibody used was Anti-Gluc (purchased from NEB), the secondary antibody used was HRP-conjugated Donkey Anti-Rabbit (purchased from Jackson), and expression of PA/PB1 with Gluc fusion tag could be detected by a scanner (purchased from Bio-rad).
When Dox was not added into the PA/PB1 HEK293T (Teton) cell line, luciferase activity of PA/PB1 interaction was the background. […] When Dox was added at a concentration of 300 ng/mL, the difference between its signal value and the background signal value was up to 200 times.

C[C@H]1c2cccc(O)c2C(=O)C2=C(O)[C@]3(O)C(=O)C(C(N)=O)=C(O)[C@@H](N(C)C)[C@@H]3[C@@H](O)[C@@H]21 [Dox, Doxycycline]
difference between signal value and background signal value (luciferase activity of PA/PB1 interaction): up to 200 times

Source: patent US10526634B2, “Cell line for screening influenza virus polymerase assembly inhibitor and construction method thereof” (Suzhou Institute of Systems Medicine, priority 2015, dated 2020)
